One compound from ChEMBL document CHEMBL1151840, “Synthetic oligoribonucleotides containing arabinonucleotides act as agonists of TLR7 and 8” (Bioorg Med Chem Lett, 2009) can be followed below.

Data set [1] has as its system PBMC. Kind of data set: Stimulation of immune response in human PBMC assessed as induction of IL12 production at 150 ug/ml after 24 hrs. It is filed as functional, cell-based.
For data set [2], the species on record is Homo sapiens. Kind of data set: Stimulation of immune response in human pDC assessed as induction of MIP1beta production at 150 ug/ml after 24 hrs. Type of data set: functional.
Data set [3] is filed under the species Homo sapiens. Kind of data set: Stimulation of immune response in human pDC assessed as induction of IFN-gamma production at 150 ug/ml after 24 hrs. Type of data set: functional.
Data set [4] is filed under the species Homo sapiens. Kind of data set: Stimulation of immune response in human pDC assessed as induction of IL12 production at 150 ug/ml after 24 hrs. Type of data set: functional.
The species named for data set [5] is Homo sapiens. Kind of data set: Stimulation of immune response in human pDC assessed as induction of MIP1alpha production at 150 ug/ml after 24 hrs. Type of data set: functional.
Data set [6] deals with PBMC. Kind of data set: Stimulation of immune response in human PBMC assessed as induction of MIP1beta production at 150 ug/ml after 24 hrs. Type of data set: functional, cell-based.
For data set [7], the system named is PBMC. Put plainly: Stimulation of immune response in human PBMC assessed as induction of IFNalpha production at 150 ug/ml after 24 hrs. Type of data set: functional, cell-based.
For data set [8], the system named is PBMC. Kind of data set: Stimulation of immune response in human PBMC assessed as induction of MIP1alpha production at 150 ug/ml after 24 hrs. It is filed as functional, cell-based.
The species named for data set [9] is Homo sapiens. Put plainly: Stimulation of immune response in human pDC assessed as induction of IFNalpha production at 150 ug/ml after 24 hrs. It is filed as functional.
In the next data set the test system is Mus musculus. Put plainly: Stimulation of immune response in C57BL/6 mouse assessed as induction of serum IL12 production at 50 mg/kg, sc after 2 hrs by luminex multiplex assay. Also on record: dose 50 mg/kg. It is filed as functional, organism-based.
The species named for data set [10] is Homo sapiens. Put plainly: Stimulation of immune response in human pDC assessed as induction of TNFalpha production at 150 ug/ml after 24 hrs. It is filed as functional.
The subject of data set [11] is PBMC. Put plainly: Stimulation of immune response in human PBMC assessed as induction of IL2R level at 150 ug/ml after 24 hrs. It is filed as functional, cell-based.
In data set [12] the target is T1, Toll-like receptor 8 (Homo sapiens) (UniProt Q9NR97).
T1 sequence (whole entry): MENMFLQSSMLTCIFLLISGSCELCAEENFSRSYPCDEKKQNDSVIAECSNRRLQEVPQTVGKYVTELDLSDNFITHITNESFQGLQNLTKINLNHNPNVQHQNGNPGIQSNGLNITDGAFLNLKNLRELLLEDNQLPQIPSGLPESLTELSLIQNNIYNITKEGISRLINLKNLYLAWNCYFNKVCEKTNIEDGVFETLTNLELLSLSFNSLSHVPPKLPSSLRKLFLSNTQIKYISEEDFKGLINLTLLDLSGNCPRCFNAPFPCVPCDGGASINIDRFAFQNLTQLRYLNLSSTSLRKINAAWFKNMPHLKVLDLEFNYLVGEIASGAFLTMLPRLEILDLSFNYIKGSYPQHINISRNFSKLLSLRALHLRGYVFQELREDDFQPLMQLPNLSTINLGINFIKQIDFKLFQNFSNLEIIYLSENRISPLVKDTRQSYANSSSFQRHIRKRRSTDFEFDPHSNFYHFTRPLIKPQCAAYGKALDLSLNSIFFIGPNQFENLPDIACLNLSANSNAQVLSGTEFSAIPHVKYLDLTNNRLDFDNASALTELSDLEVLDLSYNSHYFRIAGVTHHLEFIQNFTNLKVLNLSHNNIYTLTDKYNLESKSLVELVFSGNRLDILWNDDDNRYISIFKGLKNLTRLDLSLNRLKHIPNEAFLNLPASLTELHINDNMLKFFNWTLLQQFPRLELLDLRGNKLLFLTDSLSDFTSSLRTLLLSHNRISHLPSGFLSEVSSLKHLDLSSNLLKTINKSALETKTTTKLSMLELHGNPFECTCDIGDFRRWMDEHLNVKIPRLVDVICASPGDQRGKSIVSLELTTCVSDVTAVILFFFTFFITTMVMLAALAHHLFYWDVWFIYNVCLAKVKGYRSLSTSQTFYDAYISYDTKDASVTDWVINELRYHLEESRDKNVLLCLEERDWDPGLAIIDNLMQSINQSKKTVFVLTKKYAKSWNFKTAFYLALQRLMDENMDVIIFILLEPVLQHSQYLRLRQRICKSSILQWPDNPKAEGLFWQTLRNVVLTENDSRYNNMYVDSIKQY
Put plainly: Agonist activity at human TLR8 expressed in HEK293XL cells assessed as NF-kappaB activation after 18 hrs. Type of data set: functional, cell-based.

In data set [13] the test system is PBMC. Kind of data set: Stimulation of immune response in human PBMC assessed as induction of IFN-gamma production at 150 ug/ml after 24 hrs. Type of data set: functional, cell-based.
Data set [14] has as its system PBMC. Kind of data set: Stimulation of immune response in human PBMC assessed as induction of IL1-beta production at 150 ug/ml after 24 hrs. Type of data set: functional, cell-based.
Data set [15] concerns PBMC. Kind of data set: Stimulation of immune response in human PBMC assessed as induction of TNFalpha production at 150 ug/ml after 24 hrs. Type of data set: functional, cell-based.
Data set [16] has as its target T2, Toll-like receptor 7 (Homo sapiens) (UniProt Q9NYK1).
T2 sequence (whole entry): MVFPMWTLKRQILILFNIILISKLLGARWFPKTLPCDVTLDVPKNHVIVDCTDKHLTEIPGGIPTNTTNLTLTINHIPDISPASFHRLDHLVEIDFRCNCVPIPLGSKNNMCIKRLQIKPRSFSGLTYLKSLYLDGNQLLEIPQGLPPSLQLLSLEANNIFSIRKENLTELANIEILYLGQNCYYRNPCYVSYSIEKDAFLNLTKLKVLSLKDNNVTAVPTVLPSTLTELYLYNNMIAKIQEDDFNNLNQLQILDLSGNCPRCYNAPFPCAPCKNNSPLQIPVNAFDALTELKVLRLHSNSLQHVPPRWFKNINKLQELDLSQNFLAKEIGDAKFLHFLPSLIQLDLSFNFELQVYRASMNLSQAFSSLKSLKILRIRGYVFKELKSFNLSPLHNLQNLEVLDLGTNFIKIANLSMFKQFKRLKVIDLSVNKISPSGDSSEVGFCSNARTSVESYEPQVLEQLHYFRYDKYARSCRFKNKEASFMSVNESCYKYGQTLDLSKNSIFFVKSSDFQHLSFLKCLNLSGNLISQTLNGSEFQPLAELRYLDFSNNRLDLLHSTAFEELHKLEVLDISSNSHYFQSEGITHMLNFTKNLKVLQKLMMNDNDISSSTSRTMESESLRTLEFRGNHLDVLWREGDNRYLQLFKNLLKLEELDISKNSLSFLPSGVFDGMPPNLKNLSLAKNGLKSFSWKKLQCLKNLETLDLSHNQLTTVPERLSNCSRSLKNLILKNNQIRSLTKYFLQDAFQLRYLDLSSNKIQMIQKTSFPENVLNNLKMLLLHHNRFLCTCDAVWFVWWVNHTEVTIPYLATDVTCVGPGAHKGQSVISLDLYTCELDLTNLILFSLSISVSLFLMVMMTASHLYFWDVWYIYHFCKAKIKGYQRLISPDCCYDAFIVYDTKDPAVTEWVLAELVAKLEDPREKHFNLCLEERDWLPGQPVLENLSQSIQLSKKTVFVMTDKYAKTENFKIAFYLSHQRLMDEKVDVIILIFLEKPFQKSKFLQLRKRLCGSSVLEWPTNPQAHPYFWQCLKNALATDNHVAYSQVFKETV
Kind of data set: Agonist activity at human TLR7 expressed in HEK293XL cells assessed as NF-kappaB activation after 18 hrs. It is filed as functional, cell-based.

Data set [17] concerns PBMC. Put plainly: Stimulation of immune response in human PBMC assessed as induction of RANTES production at 150 ug/ml after 24 hrs. It is filed as functional, cell-based.
The nature of data set [18]: Stability in human serum assessed as full-length compound remaining after 10 mins by anion-exchange HPLC. The settings on record: read-out: Stability. It is filed as ADME, cell-free.
Data set [19] has as its system PBMC. Put plainly: Stimulation of immune response in human PBMC assessed as induction of IL10 production at 150 ug/ml after 24 hrs. It is filed as functional, cell-based.
The subject of data set [20] is PBMC. Kind of data set: Stimulation of immune response in human PBMC assessed as induction of IL8 production at 150 ug/ml after 24 hrs. Type of data set: functional, cell-based.
Data set [21] concerns PBMC. Put plainly: Stimulation of immune response in human PBMC assessed as induction of MCP1 production at 150 ug/ml after 24 hrs. It is filed as functional, cell-based.

Calls of active or inactive are those of the source. The rule behind the calls is not given here.

In the case of `Nc1ncnc2c1ncn2[C@@H]1O[C@H](CO)[C@@H](OP(=O)(S)OC[C@H]2O[C@@H](n3cnc4c(N)ncnc43)[C@H](O)[C@@H]2OP(=O)(S)OC[C@H]2O[C@@H](n3cnc4c(N)ncnc43)[C@H](O)[C@@H]2OP(=O)(S)OC[C@H]2O[C@@H](n3cnc4c(N)ncnc43)[C@H](O)[C@@H]2OP(=O)(S)OC[C@H]2O[C@@H](n3cnc4c(N)ncnc43)[C@H](O)[C@@H]2OP(=O)(S)OC[C@H]2O[C@@H](n3cnc4c(N)ncnc43)[C@H](O)[C@@H]2OP(=O)(S)OC[C@H]2O[C@@H](n3cnc4c(N)ncnc43)[C@H](O)[C@@H]2OP(=O)(S)OC[C@H]2O[C@@H](n3cnc4c(N)ncnc43)[C@H](O)[C@@H]2OP(=O)(S)OC[C@H]2O[C@@H](n3cnc4c(N)ncnc43)[C@H](O)[C@@H]2OP(=O)(S)OC[C@H]2O[C@@H](n3cnc4c(N)ncnc43)[C@H](O)[C@@H]2OP(=O)(S)OC[C@H]2O[C@@H](n3cnc4c(N)ncnc43)[C@H](O)[C@@H]2OP(=O)(S)OCC(O)COP(=O)(S)O[C@H]2[C@@H](O)[C@H](n3cnc4c(N)ncnc43)O[C@@H]2COP(=O)(S)O[C@H]2[C@@H](O)[C@H](n3cnc4c(N)ncnc43)O[C@@H]2COP(=O)(S)O[C@H]2[C@@H](O)[C@H](n3cnc4c(N)ncnc43)O[C@@H]2COP(=O)(S)O[C@H]2[C@@H](O)[C@H](n3cnc4c(N)ncnc43)O[C@@H]2COP(=O)(S)O[C@H]2[C@@H](O)[C@H](n3cnc4c(N)ncnc43)O[C@@H]2COP(=O)(S)O[C@H]2[C@@H](O)[C@H](n3cnc4c(N)ncnc43)O[C@@H]2COP(=O)(S)O[C@H]2[C@@H](O)[C@H](n3cnc4c(N)ncnc43)O[C@@H]2COP(=O)(S)O[C@H]2[C@@H](O)[C@H](n3cnc4c(N)ncnc43)O[C@@H]2COP(=O)(S)O[C@H]2[C@@H](O)[C@H](n3cnc4c(N)ncnc43)O[C@@H]2COP(=O)(S)O[C@H]2[C@@H](O)[C@H](n3cnc4c(N)ncnc43)O[C@@H]2COP(=O)(S)O[C@H]2[C@@H](O)[C@H](n3cnc4c(N)ncnc43)O[C@@H]2CO)[C@H]1O` (some centres not stated), the outcome with PBMC [1], in the data set filed under Homo sapiens [2], in the data set filed under Homo sapiens [3], in the data set filed under Homo sapiens [4], in the data set filed under Homo sapiens [5] and in the data set on PBMC [6] was inactive. Besides, the result in the data set with PBMC [7], in the data set on PBMC [8], in the data set listed under Homo sapiens [9], in the data set with Mus musculus, in the data set listed under Homo sapiens [10] and in the data set with PBMC [11] was inactive. For the same compound, the outcome (in data set [12]; in the data set with PBMC [13]; in the data set on PBMC [14]; with PBMC [15]; in data set [16]; in the data set on PBMC [17]) was inactive. Besides, the outcome in the data set on PBMC [19], in the data set with PBMC [20] and in the data set with PBMC [21] was inactive. The remaining at 10 min in data set [18] was 90%.
